Assay results from patent US20090238895A1, “NUTRITIONAL AND/OR PHARMACEUTICAL PREPARATION FOR USE IN PROPHYLAXIS AND TREATMENT OF DISTURBANCES IN MICROELEMENTS ABSORPTION FROM THE ALIMENTARY CANAL” (priority 2004, published 2009).
Marks after values point to notes of the source that are not given here.

How the values were obtained:
[1] = Iron concentration in plasma of young pigs after FeSO4 or FeSO4/AKG infusion to the duodenum or pelvic intestine; format: in vivo
Description: (§1) Investigations were performed on 3 piglets of the Swedish race Landrace weighting 30-35 kg. Animals originated from the university herd (Swedish Agricultural University, Dept. of Agricultural Biosystems and Technology, Lund). Young pigs were fed 2 times a day at the same time (9:00-10:00 a.m. and 3:00-4:00 p.m.) with a standard fodder (Vaxfor, Lantmanen, Sweden) with a daily dose 50 g/kg body weight. They were watered ad libitum. Animals were held separately in boxes with automatically regulated 12 hour's periods of day and night.
(§2) Sterile catheters and T-fistulas used in the experience were made of silicone tubes with maintained medical standards (Dow Cornning). Piglets were starved for 9-12 hours before the operation. Before the operation animals received a sedative drug—azoperone (Stresnil, 2 mg/kg body weight). Then the inhalation induction of general anaesthesia was performed (Fluothan 0.5-1.5 vol %). […] With the catheters inserted to the portal vein and the common carotid-artery the blood samples for later analyses were collected.
Two incisions were done: one 10-15 cm close to the right hunger fossa, second 2-3 cm between the brachial joint and the angle of the mandible. Duodenal fistula was placed behind the opening of the pancreatic duct to the duodenum. Pelvic T-fistula (int. diameter 3.18 mm and ext. diameter 4.64 mm—both fistulas) was introduced to the pelvic intestine at the end of the caeco-iliac ligament.
The catheter to the portal vein (int. diameter 0.64 mm and ext. diameter 1.19 mm) was introduced through the liver and fixed with several sutures (0-2 Catgut, Ethicon, England). The catheter placed in portal vein and both intestinal fistulas were brought out the body in the line of incision. After dissection of zygomatic vein the catheter was introduced in the cardiac direction on the depth of 7 cm. The vein was closed with the double ligature (0-3 silicone-, Ethicon, England) and brought outside the body with the surgical needle in the dorsal part of the neck. The abdomen and the neck wounds were closed with two layers of sutures: the peritoneum (only in the abdomen wound) and muscles were closed with twisted suture (0-0 Catgut , Ethicon), the skin was closed with the interrupted sutures (Suturamid 2-0, Ethicon). After operation young pigs were placed in separate boxes. During 5 postoperative days animals were fed twice a day, they received water ad libitum. The operation was performed by the skilled surgeon in accordance with surgical techniques.
Before infusion animals were starved. The daily dose of food was given during evening feeding at 3:00 p.m. All infusions were started at 9:00 a.m. Blood samples were taken 30 minutes before and 15, 30, 60 and 120 minutes after the infusion. 2. Infusions composition.

[2] = AKG concentration in plasma of young pigs after AKG or FeSO4/AKG infusion to the duodenum or pelvic intestine; format: in vivo; details: FeSO4 infused with AKG
Description: as §1, §2
Two incisions were done: one 10-15 cm close to the right hunger fossa, second 2-3 cm between the brachial joint and the angle of the mandible. Duodenal fistula was placed behind the opening of the pancreatic duct to the duodenum. […]

iron concentration in plasma ([1]; infusion to pelvic intestine, portal vein, 15 min): 18.00 ± 5.41^a μmol/l
iron concentration in plasma ([1]; infusion to pelvic intestine, portal vein, 30 min): 17.67 ± 6.53^a μmol/l
iron concentration in plasma ([1]; infusion to pelvic intestine, portal vein, 60 min): 16.83 ± 6.81^a μmol/l
iron concentration in plasma ([1]; infusion to pelvic intestine, portal vein, 120 min): 15.33 ± 7.18^a μmol/l
iron concentration in plasma ([1]; infusion to pelvic intestine, portal vein, -30 min (before infusion)): 19.17 ± 8.69^a μmol/l
iron concentration in plasma ([1]; infusion to pelvic intestine, zygomatic vein, 15 min): 18.83 ± 6.81^a μmol/l
iron concentration in plasma ([1]; infusion to pelvic intestine, zygomatic vein, 30 min): 18.83 ± 6.81^a μmol/l
iron concentration in plasma ([1]; infusion to pelvic intestine, zygomatic vein, 60 min): 18.00 ± 7.47^a μmol/l
iron concentration in plasma ([1]; infusion to pelvic intestine, zygomatic vein, 120 min): 15.67 ± 6.43^a μmol/l
iron concentration in plasma ([1]; infusion to pelvic intestine, zygomatic vein, -30 min (before infusion)): 19.67 ± 7.97^a μmol/l
iron concentration in plasma ([1]; infusion to the duodenum, portal vein, 15 min): 28.5 ± 4.09^b μmol/l
iron concentration in plasma ([1]; infusion to the duodenum, portal vein, 30 min): 37.67 ± 5.3^cb μmol/l
iron concentration in plasma ([1]; infusion to the duodenum, portal vein, 60 min): 40.17 ± 4.62^c μmol/l
iron concentration in plasma ([1]; infusion to the duodenum, portal vein, 120 min): 37.17 ± 4.37^c μmol/l
iron concentration in plasma ([1]; infusion to the duodenum, portal vein, -30 min (before infusion)): 16.33 ± 1.04^a μmol/l
iron concentration in plasma ([1]; infusion to the duodenum, zygomatic vein, 15 min): 29.17 ± 5.51^b μmol/l
iron concentration in plasma ([1]; infusion to the duodenum, zygomatic vein, 30 min): 39.50 ± 4.09^c μmol/l
iron concentration in plasma ([1]; infusion to the duodenum, zygomatic vein, 60 min): 43.0 ± 4.82^c μmol/l
iron concentration in plasma ([1]; infusion to the duodenum, zygomatic vein, 120 min): 39.5 ± 3.5^c μmol/l
iron concentration in plasma ([1]; infusion to the duodenum, zygomatic vein, -30 min (before infusion)): 18.2 ± 1.53^a μmol/l
SMILES: O=S(=O)([O-])[O-].[Fe+2] [FeSO4]
effect on absorption of AKG from the intestine into the blood [2]: increases the absorption of AKG from the intestine into the blood
